Assay results reported in ChEMBL document CHEMBL1909046, “DrugMatrix in vitro pharmacology data”.
pIC50: −log10 of the molar value.

Columns and labels:
[1] = molecular target: Delta-type opioid receptor (Homo sapiens, UniProt P41143); format: cell membranes, HEK293, Membrane; conditions: hek293; further: in other assays of this panel Not Active means under 50% inhibition at 10 µM
[2] = molecular target: T1, Alpha-2C adrenergic receptor (Homo sapiens, UniProt P18825); assay: DRUGMATRIX: Adrenergic Alpha-2C radioligand binding (ligand: [3H] MK-912); format: cell membranes, Sf9, Membrane; conditions: sf9; further: call rule not given here
T1 sequence (P18825 whole entry): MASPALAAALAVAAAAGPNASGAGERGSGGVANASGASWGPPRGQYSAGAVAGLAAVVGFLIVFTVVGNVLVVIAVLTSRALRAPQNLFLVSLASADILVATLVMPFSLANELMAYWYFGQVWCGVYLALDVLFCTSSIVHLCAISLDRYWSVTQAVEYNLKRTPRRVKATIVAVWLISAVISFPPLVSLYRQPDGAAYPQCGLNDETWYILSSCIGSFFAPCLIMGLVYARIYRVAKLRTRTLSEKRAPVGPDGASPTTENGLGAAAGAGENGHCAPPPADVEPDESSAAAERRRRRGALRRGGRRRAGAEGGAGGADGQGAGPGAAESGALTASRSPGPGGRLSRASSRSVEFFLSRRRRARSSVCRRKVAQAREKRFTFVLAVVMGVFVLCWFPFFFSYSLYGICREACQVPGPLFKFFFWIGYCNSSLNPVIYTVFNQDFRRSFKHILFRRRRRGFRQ

[3] = molecular target: T2, Polyunsaturated fatty acid lipoxygenase ALOX15 (Oryctolagus cuniculus, UniProt P12530); assay: biochemical; format: tissue-based, Reticulocytes;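 further: inhibition of 15-lipoxygenase enzyme activity measured with linoleic acid as the substrate; in other assays of this panel Not Active means under 50% inhibition at 10 µM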
T2 sequence (P12530 whole entry): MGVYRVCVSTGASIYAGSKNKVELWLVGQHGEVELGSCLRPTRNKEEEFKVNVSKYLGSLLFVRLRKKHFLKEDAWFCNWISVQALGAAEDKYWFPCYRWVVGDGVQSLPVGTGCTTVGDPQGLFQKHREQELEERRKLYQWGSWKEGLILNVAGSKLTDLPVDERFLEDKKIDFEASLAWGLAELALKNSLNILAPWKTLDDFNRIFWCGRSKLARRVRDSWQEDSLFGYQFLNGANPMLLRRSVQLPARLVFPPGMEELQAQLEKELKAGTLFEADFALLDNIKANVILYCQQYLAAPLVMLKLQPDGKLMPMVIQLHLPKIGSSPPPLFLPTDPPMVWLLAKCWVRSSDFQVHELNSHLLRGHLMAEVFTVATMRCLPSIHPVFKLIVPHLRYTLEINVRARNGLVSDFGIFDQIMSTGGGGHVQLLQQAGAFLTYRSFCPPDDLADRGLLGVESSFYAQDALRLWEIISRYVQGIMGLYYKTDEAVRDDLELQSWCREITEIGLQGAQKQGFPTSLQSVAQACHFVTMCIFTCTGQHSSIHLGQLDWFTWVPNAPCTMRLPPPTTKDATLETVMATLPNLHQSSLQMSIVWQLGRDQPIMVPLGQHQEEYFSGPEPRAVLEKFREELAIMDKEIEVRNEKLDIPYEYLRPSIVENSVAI

[4] = molecular target: T3, Neuropeptide Y receptor type 2 (Homo sapiens, UniProt P49146); format: cell membranes, Membrane; conditions: kan-ts; further: in other assays of this panel Not Active means under 50% inhibition at 10 µM
T3 sequence (P49146 whole entry): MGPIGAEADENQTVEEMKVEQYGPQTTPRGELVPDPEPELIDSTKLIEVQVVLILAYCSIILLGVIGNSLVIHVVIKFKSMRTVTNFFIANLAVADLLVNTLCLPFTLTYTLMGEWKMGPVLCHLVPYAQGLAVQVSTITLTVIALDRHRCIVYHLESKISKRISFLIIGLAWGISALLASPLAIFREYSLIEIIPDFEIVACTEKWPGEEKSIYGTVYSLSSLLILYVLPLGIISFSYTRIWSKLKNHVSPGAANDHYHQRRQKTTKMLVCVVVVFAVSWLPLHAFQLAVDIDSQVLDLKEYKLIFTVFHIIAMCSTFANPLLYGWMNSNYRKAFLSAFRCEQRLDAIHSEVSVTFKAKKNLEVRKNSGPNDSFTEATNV

[5] = molecular target: T4, Alpha-1D adrenergic receptor (Homo sapiens, UniProt P25100); format: cell membranes, HEK293, Membrane; conditions: hek293; further: in other assays of this panel Not Active means under 50% inhibition at 10 µM
T4 sequence (P25100 whole entry): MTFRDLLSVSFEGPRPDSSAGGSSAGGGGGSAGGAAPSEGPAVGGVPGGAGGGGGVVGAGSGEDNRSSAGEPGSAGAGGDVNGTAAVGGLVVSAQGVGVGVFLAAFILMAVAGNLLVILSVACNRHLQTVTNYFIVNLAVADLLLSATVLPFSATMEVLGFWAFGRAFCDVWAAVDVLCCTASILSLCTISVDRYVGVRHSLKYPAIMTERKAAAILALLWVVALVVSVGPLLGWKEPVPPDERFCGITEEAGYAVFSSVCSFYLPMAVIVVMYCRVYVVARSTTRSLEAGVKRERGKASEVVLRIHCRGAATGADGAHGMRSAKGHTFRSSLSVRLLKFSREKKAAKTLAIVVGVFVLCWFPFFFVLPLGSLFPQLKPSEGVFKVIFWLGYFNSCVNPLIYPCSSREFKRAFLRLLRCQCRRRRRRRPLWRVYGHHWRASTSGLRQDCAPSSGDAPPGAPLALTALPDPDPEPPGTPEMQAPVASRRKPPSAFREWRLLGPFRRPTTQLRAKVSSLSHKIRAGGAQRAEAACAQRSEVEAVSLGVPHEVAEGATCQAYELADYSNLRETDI

[6] = molecular target: T5, Vasoactive intestinal polypeptide receptor 1 (Homo sapiens, UniProt P32241); format: cell membranes, Membrane; conditions: ht-29; further: in other assays of this panel Not Active means under 50% inhibition at 10 µM
T5 sequence (P32241 whole entry): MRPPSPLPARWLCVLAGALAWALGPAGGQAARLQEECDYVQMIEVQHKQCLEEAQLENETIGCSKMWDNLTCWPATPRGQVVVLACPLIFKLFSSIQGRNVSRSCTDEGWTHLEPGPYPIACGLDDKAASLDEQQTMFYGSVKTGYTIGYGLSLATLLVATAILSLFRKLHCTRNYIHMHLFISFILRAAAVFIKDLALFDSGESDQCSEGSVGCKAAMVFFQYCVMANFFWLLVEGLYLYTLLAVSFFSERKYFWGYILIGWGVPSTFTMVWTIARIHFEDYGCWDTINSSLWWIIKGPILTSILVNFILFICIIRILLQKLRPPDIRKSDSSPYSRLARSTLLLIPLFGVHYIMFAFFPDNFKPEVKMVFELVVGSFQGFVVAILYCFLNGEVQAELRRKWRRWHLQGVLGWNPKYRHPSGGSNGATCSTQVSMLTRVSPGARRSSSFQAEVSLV

Sequence of Delta-type opioid receptor (P41143 whole entry): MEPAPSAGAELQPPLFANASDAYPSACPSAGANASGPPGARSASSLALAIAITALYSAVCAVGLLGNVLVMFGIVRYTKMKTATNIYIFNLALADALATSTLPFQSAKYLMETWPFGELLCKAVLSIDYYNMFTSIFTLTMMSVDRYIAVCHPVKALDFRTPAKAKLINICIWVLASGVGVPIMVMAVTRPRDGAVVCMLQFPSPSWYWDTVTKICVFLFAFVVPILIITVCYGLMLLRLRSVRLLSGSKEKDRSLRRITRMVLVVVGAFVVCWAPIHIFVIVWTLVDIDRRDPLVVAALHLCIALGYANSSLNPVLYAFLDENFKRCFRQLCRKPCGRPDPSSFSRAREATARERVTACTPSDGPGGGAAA

SMILES | IC50 [1] | IC50 [2] | IC50 ([3]; reticulocytes) | IC50 [4] | IC50 [5] | IC50 [6] | Ki ([3]; reticulocytes) | Ki [5] | pIC50 ([3]; read-out: IC50)
CCOC(=O)[C@H](CCc1ccccc1)N[C@@H](C)C(=O)N1Cc2ccccc2C[C@H]1C(=O)O | Not Active | Not Active | Not Active | Not Active | Not Active | Not Active | – | – | –
CCc1oc2ccccc2c1C(=O)c1cc(Br)c(O)c(Br)c1 [BENZBROMARONE] | Not Active | Not Active | – | Not Active | Not Active | Not Active | Not Active | – | –
CC[C@H]1OC(=O)[C@H](C)[C@@H](O[C@H]2C[C@@](C)(OC)[C@@H](O)[C@H](C)O2)[C@H](C)[C@@H](O[C@@H]2O[C@H](C)C[C@H](N(C)C)[C@H]2O)[C@](C)(OC)C[C@@H](C)C(=O)[C@H](C)[C@@H](O)[C@]1(C)O [CLARITHROMYCIN] | Not Active | Not Active | Not Active | Not Active | Not Active | Not Active | – | – | –
CC(=O)O[C@]1(C(C)=O)CC[C@H]2[C@@H]3C=C(C)C4=CC(=O)CC[C@]4(C)[C@H]3CC[C@@]21C [MEGESTROL ACETATE] | Not Active | Not Active | Not Active | Not Active | Not Active | Not Active | – | – | –
CC(=O)O[C@]1(C(C)=O)CC[C@H]2[C@@H]3C=C(Cl)C4=CC(=O)[C@@H]5C[C@@H]5[C@]4(C)[C@H]3CC[C@@]21C [CYPROTERONE ACETATE] | Not Active | Not Active | Not Active | Not Active | – | Not Active | – | Not Active | –
CC(C)(Oc1ccc(C2CC2(Cl)Cl)cc1)C(=O)O (centres undefined) [CIPROFIBRATE] | Not Active | Not Active | Not Active | Not Active | Not Active | Not Active | – | – | –
Cc1cnc(C(=O)NCCc2ccc(S(=O)(=O)NC(=O)NC3CCCCC3)cc2)cn1 [GLIPIZIDE] | Not Active | Not Active | Not Active | Not Active | Not Active | Not Active | – | – | –
CC(C)(C)c1ccc(S(=O)(=O)/C=C/C#N)cc1 [BAY-11-7085] | Not Active | Not Active | Not Active | Not Active | Not Active | Not Active | – | – | –
Cc1cccc(Nc2ccccc2C(=O)O)c1C [MEFENAMIC ACID] | Not Active | Not Active | Not Active | Not Active | Not Active | Not Active | – | – | –
NC[C@@H]1O[C@H](O[C@H]2[C@@H](O)[C@H](O[C@@H]3[C@@H](O)[C@H](N)C[C@H](N)[C@H]3O[C@H]3O[C@H](CN)[C@@H](O)[C@H](O)[C@H]3N)O[C@@H]2CO)[C@H](N)[C@@H](O)[C@@H]1O [FRAMYCETIN] | Not Active | Not Active | Not Active | Not Active | Not Active | Not Active | – | – | –
O=C(O)c1cccnc1 [NIACIN] | Not Active | Not Active | Not Active | Not Active | Not Active | Not Active | – | – | –
CC[C@]1(O)CC[C@H]2[C@@H]3CCC4=CCCC[C@@H]4[C@H]3CC[C@@]21C | Not Active | Not Active | Not Active | Not Active | Not Active | Not Active | – | – | –
COc1cc(CNC(=O)CCCC/C=C/C(C)C)ccc1O [CAPSAICIN] | Not Active | Not Active | Not Active | Not Active | Not Active | Not Active | – | – | –
CN(C(=O)CCCOc1ccc2[nH]c(=O)ccc2c1)C1CCCCC1 [CILOSTAMIDE] | Not Active | Not Active | Not Active | Not Active | Not Active | Not Active | – | – | –
CC(=O)OCC(CCn1cnc2cnc(N)nc21)COC(C)=O [FAMCICLOVIR] | Not Active | Not Active | Not Active | Not Active | Not Active | Not Active | – | – | –
OCCN1CCN(CCCN2c3ccccc3Sc3ccc(Cl)cc32)CC1 [PERPHENAZINE] | Not Active | Not Active | Not Active | Not Active | Not Active | Not Active | – | – | –
COC(=O)c1ccccc1O [METHYL SALICYLATE] | Not Active | Not Active | Not Active | Not Active | Not Active | Not Active | – | – | –
C[C@H]([C@](O)(Cn1cncn1)c1ccc(F)cc1F)S(C)(=O)=O [GENACONAZOLE] | Not Active | Not Active | Not Active | Not Active | Not Active | Not Active | – | – | –
Clc1cc2c(cc1Cl)Oc1cc(Cl)c(Cl)cc1O2 [2,3,7,8-TETRACHLORODIBENZO-P-DIOXIN] | Not Active | Not Active | Not Active | Not Active | Not Active | Not Active | – | – | –
Nn1nnc2ccccc21 | Not Active | Not Active | Not Active | Not Active | Not Active | Not Active | – | – | –
COc1ccccc1OCC(O)COC(N)=O (centres undefined) [METHOCARBAMOL] | Not Active | Not Active | Not Active | Not Active | Not Active | Not Active | – | – | –
CC(C(=O)O)c1ccc(-c2ccccc2)c(F)c1 (centres undefined) [FLURBIPROFEN] | Not Active | Not Active | Not Active | Not Active | Not Active | Not Active | – | – | –
Cc1c(F)c(N2CCNC(C)C2)cc2c1c(=O)c(C(=O)O)cn2C1CC1 (centres undefined) [GREPAFLOXACIN] | Not Active | Not Active | Not Active | Not Active | Not Active | Not Active | – | – | –
Oc1ccccc1O [CATECHOL] | Not Active | Not Active | – | Not Active | Not Active | Not Active | – | – | 6.06
